The values below come from US12473287B2, “Synthetic co-crystals of anhydrous guanine and process for preparing the same” (EcoCrystal Ltd., priority 2016, dated 2025).

“And” between values parts separate entries of the source, which are not always exact repeats. Identical values can stand only once.

The conditions of series [1]: in the reflected direction; known values; cited from earlier work.
Series [2] is described as follows: Dry storage stability at ambient conditions (FT-IR). The series is classed as physicochemical. Particulars: stored dry at ambient conditions; FT-IR fresh vs 3 months old. An excerpt:
FIG. 5 presents FT-IR spectra, showing fresh guanine monohydrate (top) vs 3 months old guanine monohydrate. Only small differences in the peak intensities are visible after 3 months. The typical signatures of structured water are still present (ν1, and ν3 stretching modes (broad peaks at 3420 and 3200 cm^−1) and ν2 bending mode (1596 cm^−1)).

As for `Nc1nc2nc[nH]c2c(=O)[nH]1` [Anhydrous guanine, guanine], the refractive index n in series [1] was 1.83 and 1.81.

Regarding `Nc1nc2nc[nH]c2c(=O)[nH]1.O` [guanine monohydrate], in series [2], the “stability, solid to solid transformation” value is on record as “stable for at least several months”.
